The nature of experiment [1]: Binding affinity to human FRbeta expressed in Chinese hamster D4 cells assessed as cell growth inhibition after 96 hrs by CellTiter-Blue assay.
Experiment [2] is described as follows: Binding affinity to human RFC expressed in Chinese hamster PC43-10 cells assessed as cell growth inhibition after 96 hrs by CellTiter-Blue assay.
Experiment [3] can be described thus: Binding affinity to human FRalpha expressed in Chinese hamster RT16 cells assessed as cell growth inhibition after 96 hrs by CellTiter-Blue assay.
Experiment [4] in a line: Binding affinity to human PCFT expressed in Chinese hamster R2/PCFT4 cells assessed as cell growth inhibition after 96 hrs by CellTiter-Blue assay.
A short description of experiment [5]: Binding affinity to human FRbeta expressed in Chinese hamster D4 cells assessed as cell growth inhibition after 96 hrs by CellTiter-Blue assay in presence of 200 nM folic acid.
Experiment [6] can be described thus: Binding affinity to human FRalpha expressed in Chinese hamster RT16 cells assessed as cell growth inhibition after 96 hrs by CellTiter-Blue assay in presence of 200 nM folic acid.

For `Nc1nc2[nH]c(CCCc3cc(C(=O)N[C@@H](CCC(=O)O)C(=O)O)cs3)cc2c(=O)[nH]1`, the 50% inhibitory concentration (IC50) in experiment [1] is 0.1 nM; in experiment [2], 189 nM; in experiment [3] it was 0.61 nM; in experiment [4], 6.5 nM; in experiment [5], 654 nM; in experiment [6] it was 506 nM.
For `Nc1nc(N)c2c(CCCc3cc(C(=O)N[C@@H](CCC(=O)O)C(=O)O)cs3)coc2n1`, the 50% inhibitory concentration (IC50) in experiment [1] is 54 nM; in experiment [2], over 1000 nM; in experiment [4], over 1000 nM; in experiment [5], over 1000 nM.
